In publication PMC9034499, “RORγt agonist enhances anti-PD-1 therapy by promoting monocyte-derived dendritic cells through CXCL10 in cancers” (Journal of Experimental & Clinical Cancer Research : CR, 2022):
pEC50: −log10 of the molar value.

Assays:
RORα = biological target: T1, RORα (Homo sapiens, UniProt P35398); assay: RORα Gal4 reporter gene assay; format: cell-based
T1 construct: expressed in transfected cells
T1 sequence (P35398 1-523): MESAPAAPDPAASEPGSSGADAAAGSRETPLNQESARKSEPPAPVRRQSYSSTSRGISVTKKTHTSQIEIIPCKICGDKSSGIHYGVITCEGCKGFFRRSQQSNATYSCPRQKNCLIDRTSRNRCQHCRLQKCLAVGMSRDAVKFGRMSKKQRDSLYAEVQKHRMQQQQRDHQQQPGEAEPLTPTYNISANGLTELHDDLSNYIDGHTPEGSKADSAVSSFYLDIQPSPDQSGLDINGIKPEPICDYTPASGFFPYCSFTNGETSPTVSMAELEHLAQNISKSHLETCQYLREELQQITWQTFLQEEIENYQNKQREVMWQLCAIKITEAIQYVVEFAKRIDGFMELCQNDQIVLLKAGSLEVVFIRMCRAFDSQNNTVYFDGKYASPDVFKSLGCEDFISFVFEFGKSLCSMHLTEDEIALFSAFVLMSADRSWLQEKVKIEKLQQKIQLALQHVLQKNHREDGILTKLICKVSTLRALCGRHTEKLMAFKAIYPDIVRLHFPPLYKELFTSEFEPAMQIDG

RORγt = biological target: T2, RORγt (Homo sapiens, UniProt P51449); assay: RORγt dual FRET assay; format: biochemical
T2 sequence (P51449 263-518 limits assumed): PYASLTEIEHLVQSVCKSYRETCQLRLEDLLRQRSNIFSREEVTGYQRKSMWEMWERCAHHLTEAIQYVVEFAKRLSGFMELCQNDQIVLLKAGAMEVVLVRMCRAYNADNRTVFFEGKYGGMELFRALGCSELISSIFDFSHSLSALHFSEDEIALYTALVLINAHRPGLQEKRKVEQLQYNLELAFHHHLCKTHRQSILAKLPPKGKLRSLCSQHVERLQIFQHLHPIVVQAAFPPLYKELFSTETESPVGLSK
T2 sequence (Q15788 676-700 partner limits assumed): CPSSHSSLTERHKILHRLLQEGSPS
Protocol: The assay was performed according to a previous study. The plates were incubated for 1 h at room temperature and then read on Envision in LANCE mode configured for the europeum-APC labels.

EL4 cells = assay: Direct toxicity on tumor cells (apoptosis, CCK-8); format: cell-based; settings: even at higher concentrations of 8-074
Protocol: To exclude the direct cytotoxic killing effect of 8-074 on tumor cells, we conducted an apoptosis assay, a cell proliferation assay, and a cytotoxic toxicity assay on tumor cells upon 8-074 treatment.
Supplementary file 13046_2022_2289_MOESM2_ESM.pdf: Additional file 2: Fig. S2. Selectivity of RORγt agonists in vitro. (a) The activity of 8-074 in Gal4 reporter gene assays with RORα and RORβ. (RORα EC50 > 10 μM, RORβ EC50 > 10 μM). (b) Summary of bioactivity and selectivity profiles for 8-074 using multiple assays. (c) 8-074 treated Type 17 T cells secreted more Th17 signature cytokines. IL-17F and IL-22 levels secreted by Type 17 T cells during differentiation were assayed by ELISA (*P < 0.05, **P < 0.01). (d) CCK-8 assay was used to determine the cell viability of EL4 cells after treating them with different 8-074 concentrations. Representative data are shown from three independent experiments. […] Lymphoma EL4 cells were treated with various concentrations of 8-074 for 48 hours and analyzed by flow cytometry after Annexin V-FITC/PI staining. […] (h) The relative mRNA expression of Cd19 in B cells as determined by qPCR. […] (i) Relative mRNA expression of Il-1β levels in macrophages as determined by qPCR. ***P < 0.001. (j) Relative mRNA expression of Il-6 in macrophages as determined by qPCR. *P < 0.05. (k) Relative mRNA expression of Il-10 in macrophages as determined by qPCR. *P < 0.05. […]

B cells = assay: B cell activation markers by qPCR; format: cell-based; settings: compared with the vehicle
Protocol: The intracellular cytokines by TILs or in vitro differentiated T helper cells were quantified after restimulation with PMA plus ionomycin in the presence of GolgiStop for 6 h. The total RNA was isolated using the improved TRizol-based (Sigma, Darmstadt, Germany) method for qPCR analysis, and the mRNA expression was analyzed using a StepOnePlus (Life Technologies, Carlsbad, USA) real-time PCR instrument using housekeeping gene β-actin and Gapdh internal standards. qPCR was performed using A Power SYBR Green PCR Master Mix (Accurate Biology, Hunan, China) and two-cycle amplification for 40 cycles followed by the melting curve. The sequence of primers is listed in the Additional file 6: Table S1. In addition, the cytokines were quantified in cell-free culture supernatants using enzymelinked immunosorbent assay (ELISA) kit (the optical density (OD) value was measured at 450 nm, using 570 nm or 630 nm as the reference wavelengths, Multisciences, Hangzhou, China). The kit was used according to the manufacturer’s instructions.
To confirm the in vitro specificity of 8-074, splenocytes from C57BL/6 wild-type mice were activated by plate-bound anti-CD3 and anti-CD28 antibodies and polarized with anti-IL-4 and IL-12 to obtain Th1 cells. IFN-γ, a signature cytokine of Th1 cells, was not affected by LYC-55716 or 8-074 compared with vehicle alone (Fig. 2j, Fig. S2g).

[1] = system: OVA-pulsed EL-4 lymphoma cells; assay: Ex vivo cytotoxicity assay of Tc17 cells; format: cell-based, mouse; settings: Tc17 cells differentiated from OT-I T cells with 8-074
Protocol: The EL4 cells were pulsed using 50 ng/ml OVA257-264 peptide (SIINFEKL) (Sangon Biotech, Shanghai, China) for 2 h at 37 °C and then labeled with 0.25 μM or 2.5 μM of CFSE (carboxyfluorescein succinimidyl ester; Thermo Fisher Scientific, Massachusetts, America) for 10 min at 37 °C. CFSE^l°^w (SIINFEKL loaded target) and CFSE^high (irrelevant peptide control) EL4 cells were mixed at a 1:1 ratio and then co-cultured with Tc17 cells differentiated from OT-I T cells challenged (or not) with 8-074 at 30:1, 10:1, 3:1, and 1:1 effector to target cell ratios (E: T). The frequencies of the CFSE^l°^w and CFSE^high EL4 cells in the CFSE positive fraction were determined using flow cytometric analysis 18 h after incubation, and the percent of the specific killing was calculated. Specific killing (%) = [1 − (Sample ratio) / (Negative control ratio)] × 100; Sample ratio = [CFSE^l°^w(target)/CFSE^high(irrelevant)] value of each sample co-cultured with Tc17 cells; Negative control ratio = [CFSE^l°^w(target) / CFSE^high (irrelevant)] value of EL4 cells not cultured with Tc17 cells.

- pEC50 (RORα): < 5.00
- pEC50 (RORγt): 7.70
- RORγt dual FRET %max (RORγt; maximal activation): 199%
Compound: CCS(=O)(=O)c1ccc(CC(=O)Nc2ccc(-c3ccc(CC(C)C)c(C#N)c3)c(C(F)(F)F)c2)cc1 [8-074]
- apoptosis in the tumor EL4 cells (EL4 cells): not observed
- cytotoxicity on tumor cells (EL4 cells): not observed
- gene expression of activated B cell markers Cd19 and Cd86 (B cells): no significant change
- cytotoxic killing activity of treated Tc17 cells [1]: significant increase
